Columns and labels:
human PTPN1 (1-435) = human PTPN1 (1-435) (Homo sapiens (Human), UniProt P18031); assay: Human PTPN1 Biochemical Assay; conditions: DiFMUP substrate, read-out: PTP1B IC50
In short: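 Read-out is DiFMUP hydrolysis fluorescence (360 nm excitation, 460 nm emission) after 1 h at room temperature, following 30 min enzyme–compound preincubation.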

human PTPN2 (1-387) = human PTPN2 (1-387) (Homo sapiens (Human), UniProt P17706); assay: Human PTPN2 Biochemical Assay; conditions: DiFMUP substrate
In short: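 Human PTPN2 (1-387) preincubated 30 min at RT with compound (10-point 3-fold series) in Tris pH 7.4 buffer with 0.5 mM DTT, then DiFMUP substrate added for 1 h at RT. Fluorescence at ex 360/em 460 nm, normalised to no-enzyme and enzyme controls; EC50 from 4-parameter fit.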

Chain of human PTPN1 (1-435) (P18031 whole entry): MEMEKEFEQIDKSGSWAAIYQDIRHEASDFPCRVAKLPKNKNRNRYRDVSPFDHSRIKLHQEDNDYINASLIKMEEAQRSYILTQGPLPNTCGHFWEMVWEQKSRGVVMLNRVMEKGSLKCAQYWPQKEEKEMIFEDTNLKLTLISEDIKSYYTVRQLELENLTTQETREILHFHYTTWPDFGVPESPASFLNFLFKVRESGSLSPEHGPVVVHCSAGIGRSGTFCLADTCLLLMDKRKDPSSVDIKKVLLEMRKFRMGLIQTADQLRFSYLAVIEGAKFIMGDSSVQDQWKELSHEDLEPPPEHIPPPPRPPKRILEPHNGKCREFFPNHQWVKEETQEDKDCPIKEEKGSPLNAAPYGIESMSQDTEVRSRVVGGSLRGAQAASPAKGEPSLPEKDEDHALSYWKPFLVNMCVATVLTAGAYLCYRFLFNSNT
Chain of human PTPN2 (1-387) (P17706 other isoform, or with tags, fused parts or gaps): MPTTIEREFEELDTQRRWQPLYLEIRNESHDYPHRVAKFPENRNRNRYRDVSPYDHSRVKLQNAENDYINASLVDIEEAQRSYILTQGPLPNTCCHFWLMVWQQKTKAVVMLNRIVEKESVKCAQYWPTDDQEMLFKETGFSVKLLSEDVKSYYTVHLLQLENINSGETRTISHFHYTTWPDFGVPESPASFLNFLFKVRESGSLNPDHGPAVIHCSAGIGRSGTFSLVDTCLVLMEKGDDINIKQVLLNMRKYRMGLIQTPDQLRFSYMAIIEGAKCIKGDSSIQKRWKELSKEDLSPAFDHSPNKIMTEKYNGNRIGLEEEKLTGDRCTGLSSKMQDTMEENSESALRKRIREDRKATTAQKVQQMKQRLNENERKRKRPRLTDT

Compound: NC(=O)c1cc(OCC2CC2(F)F)c2sc(C(F)(F)P(=O)(O)O)c(Br)c2c1 (stereo not drawn) [Compound 316]
- IC50 (human PTPN1 (1-435)): 68.1 nM
- IC50 (human PTPN2 (1-387)): 50.4 nM

Compound: NC(=O)c1cc(OCCC2CCC2)c2sc(C(F)(F)P(=O)(O)O)c(Br)c2c1 [Compound 317]
- IC50 (human PTPN1 (1-435)): 68.4 nM
- IC50 (human PTPN2 (1-387)): 68.5 nM

Compound: CS(=O)(=O)CCCCOc1cc(C(N)=O)cc2c(Br)c(C(F)(F)P(=O)(O)O)sc12 [Compound 318]
- IC50 (human PTPN1 (1-435)): 52.6 nM
- IC50 (human PTPN2 (1-387)): 34.8 nM

Compound: CNC(=O)c1cc(OCCCS(C)(=O)=O)c2sc(C(F)(F)P(=O)(O)O)c(Br)c2c1 [Compound 319]
- IC50 (human PTPN1 (1-435)): 9.2 nM
- IC50 (human PTPN2 (1-387)): 9.67 nM

Compound: CNC(=O)c1cc(OCCCS(N)(=O)=O)c2sc(C(F)(F)P(=O)(O)O)c(Br)c2c1 [Compound 320]
- IC50 (human PTPN1 (1-435)): 7.5 nM
- IC50 (human PTPN2 (1-387)): 6.81 nM

Compound: CNC(=O)c1cc(OCC2CC2(F)F)c2sc(C(F)(F)P(=O)(O)O)c(Br)c2c1 (stereo not drawn) [Compound 321]
- IC50 (human PTPN1 (1-435)): 25.1 nM
- IC50 (human PTPN2 (1-387)): 24.1 nM

Compound: CNC(=O)c1cc(OCCC2CC2(F)F)c2sc(C(F)(F)P(=O)(O)O)c(Br)c2c1 (stereo not drawn) [Compound 322]
- IC50 (human PTPN1 (1-435)): 20.9 nM
- IC50 (human PTPN2 (1-387)): 29.2 nM

Compound: CNC(=O)c1cc(OCCCNS(C)(=O)=O)c2sc(C(F)(F)P(=O)(O)O)c(Br)c2c1 [Compound 323]
- IC50 (human PTPN1 (1-435)): 44 nM
- IC50 (human PTPN2 (1-387)): 55.4 nM

Compound: CNC(=O)c1cc(OCCCCS(C)(=O)=O)c2sc(C(F)(F)P(=O)(O)O)c(Br)c2c1 [Compound 324]
- IC50 (human PTPN1 (1-435)): 41 nM
- IC50 (human PTPN2 (1-387)): 29.9 nM

Compound: CNC(=O)c1cc(OCCC(C)(F)F)c2sc(C(F)(F)P(=O)(O)O)c(Br)c2c1 [Compound 325]
- IC50 (human PTPN1 (1-435)): 183 nM
- IC50 (human PTPN2 (1-387)): 385 nM

Compound: CNC(=O)c1cc(OCCCC(C)(F)F)c2sc(C(F)(F)P(=O)(O)O)c(Br)c2c1 [Compound 326]
- IC50 (human PTPN1 (1-435)): 2.5 nM
- IC50 (human PTPN2 (1-387)): 16.1 nM

Compound: CC(F)(F)CCOc1cc(C(N)=O)cc2c(Br)c(C(F)(F)P(=O)(O)O)sc12 [Compound 327]
- IC50 (human PTPN1 (1-435)): 233 nM
- IC50 (human PTPN2 (1-387)): 266 nM

Compound: N#CCCNC(=O)c1cc(OCCCS(N)(=O)=O)c2sc(C(F)(F)P(=O)(O)O)c(Br)c2c1 [Compound 328]
- IC50 (human PTPN1 (1-435)): 7.9 nM
- IC50 (human PTPN2 (1-387)): 7.83 nM

Compound: N#CCCNC(=O)c1cc(OCCCC(F)(F)F)c2sc(C(F)(F)P(=O)(O)O)c(Br)c2c1 [Compound 329]
- IC50 (human PTPN1 (1-435)): 18.1 nM
- IC50 (human PTPN2 (1-387)): 14.1 nM

Compound: CS(=O)(=O)CCCOc1cc(C(=O)NCCC#N)cc2c(Br)c(C(F)(F)P(=O)(O)O)sc12 [Compound 330]
- IC50 (human PTPN1 (1-435)): 9.2 nM
- IC50 (human PTPN2 (1-387)): 10.4 nM

Compound: NC(=O)c1cc(OCCCC2(O)CC2)c2sc(C(F)(F)P(=O)(O)O)c(Br)c2c1 [Compound 331]
- IC50 (human PTPN1 (1-435)): 28.8 nM
- IC50 (human PTPN2 (1-387)): 23.8 nM

Compound: CCC(=O)CCCOc1cc(C(N)=O)cc2c(Br)c(C(F)(F)P(=O)(O)O)sc12 [Compound 332]
- IC50 (human PTPN1 (1-435)): 29.9 nM
- IC50 (human PTPN2 (1-387)): 28.1 nM

Compound: CS(=O)(=O)CCCOc1cc(C(N)=O)cc2c(Cl)c(C(F)(F)P(=O)(O)O)sc12 [Compound 333]
- IC50 (human PTPN1 (1-435)): 37 nM
- IC50 (human PTPN2 (1-387)): 42.1 nM

Compound: NC(=O)c1cc(OCCCNS(=O)(=O)C(F)(F)F)c2sc(C(F)(F)P(=O)(O)O)c(Br)c2c1 [Compound 334]
- IC50 (human PTPN1 (1-435)): 65.8 nM
- IC50 (human PTPN2 (1-387)): 77.7 nM

Compound: NC(=O)c1cc(OCCCC2(S(N)(=O)=O)CC2)c2sc(C(F)(F)P(=O)(O)O)c(Br)c2c1 [Compound 335]
- IC50 (human PTPN1 (1-435)): 5.4 nM
- IC50 (human PTPN2 (1-387)): 4.4 nM

Compound: NC(=O)c1cc(OCc2ccc(F)cc2C(F)(F)F)c2sc(C(F)(F)P(=O)(O)O)c(Br)c2c1 [Compound 336]
- IC50 (human PTPN1 (1-435)): 160 nM
- IC50 (human PTPN2 (1-387)): 88.6 nM

Compound: Cc1ccc(COc2cc(C(N)=O)cc3c(Br)c(C(F)(F)P(=O)(O)O)sc23)c(C)c1 [Compound 337]
- IC50 (human PTPN1 (1-435)): 158 nM
- IC50 (human PTPN2 (1-387)): 83.3 nM

Compound: NC(=O)c1cc(OCc2ccc(C(F)(F)F)cc2F)c2sc(C(F)(F)P(=O)(O)O)c(Br)c2c1 [Compound 338]
- IC50 (human PTPN1 (1-435)): 74.4 nM
- IC50 (human PTPN2 (1-387)): 51.2 nM

Compound: NC(=O)c1cc(OCc2ccc(OC(F)(F)F)cc2)c2sc(C(F)(F)P(=O)(O)O)c(Br)c2c1 [Compound 339]
- IC50 (human PTPN1 (1-435)): 45.3 nM
- IC50 (human PTPN2 (1-387)): 24.4 nM

Compound: NC(=O)c1cc(OCc2ccc(C(F)(F)F)cc2C(F)(F)F)c2sc(C(F)(F)P(=O)(O)O)c(Br)c2c1 [Compound 340]
- IC50 (human PTPN1 (1-435)): 283 nM
- IC50 (human PTPN2 (1-387)): 116 nM

Compound: N#Cc1cc(Cl)ccc1COc1cc(C(N)=O)cc2c(Br)c(C(F)(F)P(=O)(O)O)sc12 [Compound 341]
- IC50 (human PTPN1 (1-435)): 94.3 nM
- IC50 (human PTPN2 (1-387)): 46.7 nM

Compound: NC(=O)c1cc(OCc2ccc(F)cc2OC(F)F)c2sc(C(F)(F)P(=O)(O)O)c(Br)c2c1 [Compound 342]
- IC50 (human PTPN1 (1-435)): 131 nM
- IC50 (human PTPN2 (1-387)): 75.1 nM

Compound: NC(=O)c1cc(OCc2ccc(-c3ncccn3)cc2)c2sc(C(F)(F)P(=O)(O)O)c(Br)c2c1 [Compound 343]
- IC50 (human PTPN1 (1-435)): 128 nM
- IC50 (human PTPN2 (1-387)): 19.3 nM

Compound: Cc1ccc(COc2cc(C(N)=O)cc3c(Br)c(C(F)(F)P(=O)(O)O)sc23)cc1C(F)(F)F [Compound 344]
- IC50 (human PTPN1 (1-435)): 195 nM
- IC50 (human PTPN2 (1-387)): 117 nM

Compound: NC(=O)c1cc(OCc2ccc(C(F)(F)F)cc2)c2sc(C(F)(F)P(=O)(O)O)c(Br)c2c1 [Compound 345]
- IC50 (human PTPN1 (1-435)): 29.5 nM
- IC50 (human PTPN2 (1-387)): 16.3 nM

Compound: NC(=O)c1cc(OCc2ccc(-c3ccccc3)cc2)c2sc(C(F)(F)P(=O)(O)O)c(Br)c2c1 [Compound 346]
- IC50 (human PTPN1 (1-435)): 16.4 nM
- IC50 (human PTPN2 (1-387)): 2.5 nM

Compound: NC(=O)c1cc(OCc2ccc(Cl)c(Cl)c2)c2sc(C(F)(F)P(=O)(O)O)c(Br)c2c1 [Compound 347]
- IC50 (human PTPN1 (1-435)): 36.5 nM
- IC50 (human PTPN2 (1-387)): 23.8 nM

Compound: COc1ccc(COc2cc(C(N)=O)cc3c(Br)c(C(F)(F)P(=O)(O)O)sc23)c(C(F)(F)F)c1 [Compound 348]
- IC50 (human PTPN1 (1-435)): 177 nM
- IC50 (human PTPN2 (1-387)): 75.7 nM

Compound: COc1ccc(COc2cc(C(N)=O)cc3c(Br)c(C(F)(F)P(=O)(O)O)sc23)cc1F [Compound 349]
- IC50 (human PTPN1 (1-435)): 26.9 nM
- IC50 (human PTPN2 (1-387)): 22 nM

Compound: NC(=O)c1cc(OCc2ccc(C3CCN(CC(F)(F)F)CC3)cc2)c2sc(C(F)(F)P(=O)(O)O)c(Br)c2c1 [Compound 350]
- IC50 (human PTPN1 (1-435)): 406 nM
- IC50 (human PTPN2 (1-387)): 159 nM

Compound: NC(=O)c1cc(OCc2ccc(F)c(C(F)(F)F)c2)c2sc(C(F)(F)P(=O)(O)O)c(Br)c2c1 [Compound 351]
- IC50 (human PTPN1 (1-435)): 174 nM
- IC50 (human PTPN2 (1-387)): 104 nM

Compound: Cc1cc(C)c(COc2cc(C(N)=O)cc3c(Br)c(C(F)(F)P(=O)(O)O)sc23)c(C)c1 [Compound 352]
- IC50 (human PTPN1 (1-435)): 692 nM
- IC50 (human PTPN2 (1-387)): 364 nM

Compound: NC(=O)c1cc(OCc2ccc(-n3cncn3)cc2)c2sc(C(F)(F)P(=O)(O)O)c(Br)c2c1 [Compound 353]
- IC50 (human PTPN1 (1-435)): 140 nM
- IC50 (human PTPN2 (1-387)): 38.5 nM

Compound: NC(=O)c1cc(OCc2ccc(-c3nccs3)cc2)c2sc(C(F)(F)P(=O)(O)O)c(Br)c2c1 [Compound 354]
- IC50 (human PTPN1 (1-435)): 69.7 nM
- IC50 (human PTPN2 (1-387)): 9.6 nM

Compound: NC(=O)c1cc(OCc2ccc(-n3ccnc3)cc2)c2sc(C(F)(F)P(=O)(O)O)c(Br)c2c1 [Compound 355]
- IC50 (human PTPN1 (1-435)): 118 nM
- IC50 (human PTPN2 (1-387)): 16.3 nM

Compound: NC(=O)c1cc(OCc2ccc(F)c(F)c2)c2sc(C(F)(F)P(=O)(O)O)c(Br)c2c1 [Compound 356]
- IC50 (human PTPN1 (1-435)): 20.5 nM
- IC50 (human PTPN2 (1-387)): 15.9 nM

Compound: NC(=O)c1cc(OCc2ccc(C(F)(F)F)c(F)c2)c2sc(C(F)(F)P(=O)(O)O)c(Br)c2c1 [Compound 357]
- IC50 (human PTPN1 (1-435)): 21.7 nM
- IC50 (human PTPN2 (1-387)): 13.7 nM

Compound: CC(C)(C)c1ccc(COc2cc(C(N)=O)cc3c(Br)c(C(F)(F)P(=O)(O)O)sc23)cc1 [Compound 359]
- IC50 (human PTPN1 (1-435)): 109 nM
- IC50 (human PTPN2 (1-387)): 35.2 nM

Compound: NC(=O)c1cc(OCc2ccc(OC(F)F)cc2)c2sc(C(F)(F)P(=O)(O)O)c(Br)c2c1 [Compound 360]
- IC50 (human PTPN1 (1-435)): 25.2 nM
- IC50 (human PTPN2 (1-387)): 12.9 nM

Compound: COc1ccc(COc2cc(C(N)=O)cc3c(Br)c(C(F)(F)P(=O)(O)O)sc23)cc1C(F)(F)F [Compound 361]
- IC50 (human PTPN1 (1-435)): 133 nM
- IC50 (human PTPN2 (1-387)): 54.6 nM
